Data: ChEMBL document CHEMBL4715712 (Bioorg Med Chem Lett, 2016)

Key:
[1] = biological target: T1, Prostaglandin G/H synthase 1 (Ovis aries, UniProt P05979); experiment: Inhibition of Ovine COX-1 assessed as decrease in prostaglandin production using arachidonic acid as substrate pretreated for 15 mins followed by substrate addition and measured after 2 mins by enzyme immunoassay
T1 sequence (P05979 whole entry): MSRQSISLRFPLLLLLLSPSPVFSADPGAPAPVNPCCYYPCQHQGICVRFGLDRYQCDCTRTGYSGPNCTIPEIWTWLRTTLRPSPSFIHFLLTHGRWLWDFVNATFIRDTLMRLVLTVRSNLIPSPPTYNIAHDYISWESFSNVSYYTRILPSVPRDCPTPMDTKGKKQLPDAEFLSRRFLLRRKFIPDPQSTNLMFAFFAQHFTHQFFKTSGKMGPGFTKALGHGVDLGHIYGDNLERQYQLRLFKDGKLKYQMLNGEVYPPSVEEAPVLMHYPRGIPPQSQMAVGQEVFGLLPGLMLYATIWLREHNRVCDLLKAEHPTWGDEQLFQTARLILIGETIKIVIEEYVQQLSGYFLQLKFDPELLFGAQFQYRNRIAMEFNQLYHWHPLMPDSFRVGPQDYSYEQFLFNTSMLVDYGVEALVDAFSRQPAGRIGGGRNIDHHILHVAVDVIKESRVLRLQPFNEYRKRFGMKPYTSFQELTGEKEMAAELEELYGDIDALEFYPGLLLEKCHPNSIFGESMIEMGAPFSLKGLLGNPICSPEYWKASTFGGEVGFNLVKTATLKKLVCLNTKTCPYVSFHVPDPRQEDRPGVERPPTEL

[2] = Inhibition of soya bean 15-LOX by enzyme immunoassay; design: species or system Glycine max
Rattus norvegicus = experiment: Antiinflammatory activity against po dosed Wistar albino rat model of carrageenan-induced foot paw edema after 3 hrs; type: functional
[3] = Ulcerogenic activity in rat assessed as average severity of ulcers at 50 mg/kg, po administered once daily for 3 consecutive days and measured after 1 hr post last dose (reference value: 0); type: toxicity, organism-based; details: in vivo
[4] = Ulcerogenic activity in rat assessed as average number of ulcers at 50 mg/kg, po administered once daily for 3 consecutive days and measured after 1 hr post last dose (reference value: 0); type: toxicity, organism-based; details: in vivo
[5] = Ulcerogenic activity in rat assessed as incidence of ulcer at 50 mg/kg, po administered once daily for 3 consecutive days and measured after 1 hr post last dose (reference value: 0%); type: toxicity, organism-based; details: in vivo
[6] = Ulcerogenic activity in rat assessed as ulcer index at 50 mg/kg, po administered once daily for 3 consecutive days and measured after 1 hr post last dose; type: toxicity, organism-based; details: in vivo, 72 h, time 3 day

IC50 [1] [µM] | IC50 [2] [µM] | SMILES | ED50 (Rattus norvegicus) [µmol/kg] | Activity [3] | Activity [4] | Activity [5] [%] | UI [6]
6.5 | 6.02 | COC(=O)c1cc(-c2sc(-c3ccccc3)nc2C)nn1-c1ccc(S(N)(=O)=O)cc1 | 74 | 0.17 | 0.5 | 20 | 2.67
5.8 | 4.7 | COc1cc([C@@H]2CC(c3sc(-c4ccccc4)nc3C)=NN2c2ccc(S(N)(=O)=O)cc2)cc(OC)c1OC | 45 | 0.53 | 0.3 | 30 | 3.83
8.4 | 7.4 | COc1ccc([C@@H]2CC(c3sc(-c4ccccc4)nc3C)=NN2c2ccc(S(C)(=O)=O)cc2)cc1OC | 52 | 0.85 | 0.5 | 30 | 4.35
6.5 | 5.6 | COc1cccc([C@@H]2CC(c3sc(-c4ccccc4)nc3C)=NN2c2ccc(S(C)(=O)=O)cc2)c1OC | 70 | 0.25 | 0.4 | 20 | 2.65
7.5 | 6.4 | COc1cc([C@@H]2CC(c3sc(-c4ccccc4)nc3C)=NN2c2ccc(S(C)(=O)=O)cc2)cc(OC)c1OC | 87 | 0.18 | 0.6 | 20 | 2.78
6.8 | 5.9 | COC(=O)c1cc(-c2sc(-c3ccccc3)nc2C)nn1-c1ccc(S(C)(=O)=O)cc1 | 90 | 0.28 | 0.2 | 20 | 2.48
 |  | Cc1ccc(-c2cc(C(F)(F)F)nn2-c2ccc(S(N)(=O)=O)cc2)cc1 [CELECOXIB] | 47 | 0.5 | 0.4 | 20 | 2.9
6.7 | 5.8 | COc1cc(/C=C/C(=O)c2sc(-c3ccccc3)nc2C)cc(OC)c1OC | 45 | 0.52 | 0.4 | 30 | 3.92
 |  | COC(=O)/C(O)=C/C(=O)c1sc(-c2ccccc2)nc1C |  | 0.39 | 0.4 | 30 | 3.79
8.6 | 7.4 | COc1ccc([C@@H]2CC(c3sc(-c4ccccc4)nc3C)=NN2c2ccc(S(N)(=O)=O)cc2)cc1OC | 55 | 0.68 | 0.4 | 30 | 4.08
3.9 | 2.8 | COc1ccc(/C=C/C(=O)c2sc(-c3ccccc3)nc2C)cc1OC | 80 | 0.57 | 0.3 | 30 | 3.87
10.2 | 8.9 | COc1cccc([C@@H]2CC(c3sc(-c4ccccc4)nc3C)=NN2c2ccc(S(N)(=O)=O)cc2)c1OC | 47 | 0.73 | 0.2 | 20 | 2.93
7.2 | 6.22 | COc1cccc(/C=C/C(=O)c2sc(-c3ccccc3)nc2C)c1OC | 59 | 1.03 | 0.6 | 50 | 6.63
 |  | CC(=O)Oc1ccccc1C(=O)O [ASPIRIN] | 714 |  |  |  | 
 | 5.64 | Cc1ccc(Cl)c(Nc2ccccc2C(=O)O)c1Cl [MECLOFENAMATE SODIUM] |  |  |  |  | 
